Experiments:
ECa-109 cell line = experiment: Cytotoxicity against human ECa-109 cells assessed as reduction in cell viability incubated for 48 hrs by MTT assay; format: functional, cell-based; conditions: ECa-109, 48 h
HepG2 = experiment: Cytotoxicity against human HepG2 cells assessed as reduction in cell viability incubated for 48 hrs by MTT assay; format: functional, cell-based; conditions: HepG2, 48 h
SGC-7901 = experiment: Cytotoxicity against human SGC-7901 cells assessed as reduction in cell viability incubated for 48 hrs by MTT assay; format: functional, cell-based; conditions: SGC-7901, 48 h
HeLa = experiment: Cytotoxicity against human HeLa cells assessed as reduction in cell viability incubated for 48 hrs by MTT assay; format: functional, cell-based
L02 = experiment: Cytotoxicity against human HL7702 cells assessed as reduction in cell viability incubated for 48 hrs by MTT assay; format: ADME, cell-based; conditions: L02, 48 h

| SMILES | IC50 (ECa-109 cell line) [µM] | IC50 (HepG2) [µM] | IC50 (SGC-7901) [µM] | IC50 (HeLa) [µM] | IC50 (L02) [µM] |
| --- | --- | --- | --- | --- | --- |
| COc1cc(Cn2nnc3c2C(C)(C)[C@@H]2CC[C@]4(C)[C@H](CC[C@@H]5[C@H]6[C@H]7OC[C@@]6(CCC7(C)C)CC[C@]54C)[C@@]2(C)C3)cc(OC)c1OC | 6.24 | 12.1 | 10.7 | 9.07 | 6.65 |
| C[n+]1nn(Cc2ccc(C(F)(F)F)cc2)c2c1C[C@]1(C)[C@H]3CC[C@@H]4[C@H]5[C@H]6OC[C@@]5(CCC6(C)C)CC[C@@]4(C)[C@]3(C)CC[C@H]1C2(C)C | 3.18 | 2.49 | 2.84 | 3.06 | 2.26 |
| CC1(C)CC[C@]23CC[C@]4(C)[C@H](CC[C@@H]5[C@@]6(C)Cc7nnn(Cc8c(F)cccc8Cl)c7C(C)(C)[C@@H]6CC[C@]54C)[C@H]2[C@H]1OC3 | 27 | 24.3 | 26.1 | 23.3 | 19.5 |
| CCCCCCn1n[n+](C)c2c1C(C)(C)[C@@H]1CC[C@]3(C)[C@H](CC[C@@H]4[C@H]5[C@H]6OC[C@@]5(CCC6(C)C)CC[C@]43C)[C@@]1(C)C2 | 3.08 | 1.93 | 1.65 | 2.45 | 1.33 |
| C[n+]1nn(Cc2ccc(F)cc2)c2c1C[C@]1(C)[C@H]3CC[C@@H]4[C@H]5[C@H]6OC[C@@]5(CCC6(C)C)CC[C@@]4(C)[C@]3(C)CC[C@H]1C2(C)C | 3.06 | 2.89 | 3.02 | 3.03 | 2.2 |
| C[n+]1nn(Cc2cccc(F)c2)c2c1C[C@]1(C)[C@H]3CC[C@@H]4[C@H]5[C@H]6OC[C@@]5(CCC6(C)C)CC[C@@]4(C)[C@]3(C)CC[C@H]1C2(C)C | 3 | 2.24 | 3.05 | 2.78 | 1.41 |
| COc1ccc(Cn2nnc3c2C(C)(C)[C@@H]2CC[C@]4(C)[C@H](CC[C@@H]5[C@H]6[C@H]7OC[C@@]6(CCC7(C)C)CC[C@]54C)[C@@]2(C)C3)cc1 | 17.2 | 13.7 | 16.9 | 12.7 | 11.2 |
| CC1(C)CC[C@]23CC[C@]4(C)[C@H](CC[C@@H]5[C@@]6(C)Cc7nnn(CC(c8ccccc8)c8ccccc8)c7C(C)(C)[C@@H]6CC[C@]54C)[C@H]2[C@H]1OC3 | 48.5 | 53.9 | 47.9 | 44.1 | 40.7 |
| CC1(C)CC[C@]23CC[C@]4(C)[C@H](CC[C@@H]5[C@@]6(C)Cc7nnn(Cc8ccc(C(F)(F)F)cc8)c7C(C)(C)[C@@H]6CC[C@]54C)[C@H]2[C@H]1OC3 | 33.9 | 28.9 | 32.2 | 28.5 | 25.6 |
| COc1ccccc1CCn1n[n+](C)c2c1C(C)(C)[C@@H]1CC[C@]3(C)[C@H](CC[C@@H]4[C@H]5[C@H]6OC[C@@]5(CCC6(C)C)CC[C@]43C)[C@@]1(C)C2 | 1.67 | 1.55 | 1.24 | 1.67 | 1.4 |
| COc1ccc(Cn2n[n+](C)c3c2C(C)(C)[C@@H]2CC[C@]4(C)[C@H](CC[C@@H]5[C@H]6[C@H]7OC[C@@]6(CCC7(C)C)CC[C@]54C)[C@@]2(C)C3)cc1 | 2.78 | 2.86 | 2.01 | 2.48 | 2.24 |
| C[n+]1nn(Cc2ccccc2)c2c1C[C@]1(C)[C@H]3CC[C@@H]4[C@H]5[C@H]6OC[C@@]5(CCC6(C)C)CC[C@@]4(C)[C@]3(C)CC[C@H]1C2(C)C | 3.29 | 2.89 | 2.83 | 3.02 | 2 |
| COc1ccccc1CCn1nnc2c1C(C)(C)[C@@H]1CC[C@]3(C)[C@H](CC[C@@H]4[C@H]5[C@H]6OC[C@@]5(CCC6(C)C)CC[C@]43C)[C@@]1(C)C2 | 34.9 | 32.8 | 38.6 | 33.9 | 31.9 |
| COc1ccccc1Cn1nnc2c1C(C)(C)[C@@H]1CC[C@]3(C)[C@H](CC[C@@H]4[C@H]5[C@H]6OC[C@@]5(CCC6(C)C)CC[C@]43C)[C@@]1(C)C2 | 57.9 | 46.7 | 53 | 41.9 | 38.4 |
| C[n+]1nn(Cc2ccc(Cl)cc2)c2c1C[C@]1(C)[C@H]3CC[C@@H]4[C@H]5[C@H]6OC[C@@]5(CCC6(C)C)CC[C@@]4(C)[C@]3(C)CC[C@H]1C2(C)C | 2.16 | 1.73 | 2.68 | 2.45 | 1.62 |
| C[n+]1nn(CC(c2ccccc2)c2ccccc2)c2c1C[C@]1(C)[C@H]3CC[C@@H]4[C@H]5[C@H]6OC[C@@]5(CCC6(C)C)CC[C@@]4(C)[C@]3(C)CC[C@H]1C2(C)C | 2.28 | 2.96 | 2.18 | 2.67 | 1.61 |
| COc1cccc(CCn2nnc3c2C(C)(C)[C@@H]2CC[C@]4(C)[C@H](CC[C@@H]5[C@H]6[C@H]7OC[C@@]6(CCC7(C)C)CC[C@]54C)[C@@]2(C)C3)c1 | 25.5 | 31.9 | 39.8 | 23.6 | 20.9 |
| Cc1ccc(Cn2n[n+](C)c3c2C(C)(C)[C@@H]2CC[C@]4(C)[C@H](CC[C@@H]5[C@H]6[C@H]7OC[C@@]6(CCC7(C)C)CC[C@]54C)[C@@]2(C)C3)cc1 | 2.62 | 2.28 | 2.16 | 2.21 | 1.47 |
| CC1(C)CC[C@]23CC[C@]4(C)[C@H](CC[C@@H]5[C@@]6(C)Cc7nnn(Cc8ccccc8Cl)c7C(C)(C)[C@@H]6CC[C@]54C)[C@H]2[C@H]1OC3 | 58.9 | 56.1 | 49.9 | 41.3 | 40.5 |
| CCCCCCCCn1nnc2c1C(C)(C)[C@@H]1CC[C@]3(C)[C@H](CC[C@@H]4[C@H]5[C@H]6OC[C@@]5(CCC6(C)C)CC[C@]43C)[C@@]1(C)C2 | > 80 | > 80 | > 80 | > 80 | > 80 |
| CCCCn1nnc2c1C(C)(C)[C@@H]1CC[C@]3(C)[C@H](CC[C@@H]4[C@H]5[C@H]6OC[C@@]5(CCC6(C)C)CC[C@]43C)[C@@]1(C)C2 | 10.5 | 10.7 | 6.61 | 6.26 | 7.86 |
| CC1(C)CC[C@]23CC[C@]4(C)[C@H](CC[C@@H]5[C@@]6(C)Cc7nnn(CCc8c[nH]c9ccccc89)c7C(C)(C)[C@@H]6CC[C@]54C)[C@H]2[C@H]1OC3 | 18.2 | 14.4 | 19.8 | 22.1 | 10.3 |
| C[n+]1nn(Cc2ccc(Cl)c(Cl)c2)c2c1C[C@]1(C)[C@H]3CC[C@@H]4[C@H]5[C@H]6OC[C@@]5(CCC6(C)C)CC[C@@]4(C)[C@]3(C)CC[C@H]1C2(C)C | 3.03 | 2.96 | 2.99 | 2.83 | 2.29 |
| CC1(C)CC[C@]23CC[C@]4(C)[C@H](CC[C@@H]5[C@@]6(C)Cc7nnn(Cc8ccccc8)c7C(C)(C)[C@@H]6CC[C@]54C)[C@H]2[C@H]1OC3 | 53.2 | 59.4 | 55.7 | > 80 | 38.5 |
| C[n+]1nn(CCc2c[nH]c3ccccc23)c2c1C[C@]1(C)[C@H]3CC[C@@H]4[C@H]5[C@H]6OC[C@@]5(CCC6(C)C)CC[C@@]4(C)[C@]3(C)CC[C@H]1C2(C)C | 3.13 | 3.17 | 3.05 | 3.19 | 2.9 |
| C[n+]1nn(Cc2ccccc2Cl)c2c1C[C@]1(C)[C@H]3CC[C@@H]4[C@H]5[C@H]6OC[C@@]5(CCC6(C)C)CC[C@@]4(C)[C@]3(C)CC[C@H]1C2(C)C | 1.98 | 3.03 | 2.24 | 2.71 | 1.3 |
| C[n+]1nn(Cc2ccccc2F)c2c1C[C@]1(C)[C@H]3CC[C@@H]4[C@H]5[C@H]6OC[C@@]5(CCC6(C)C)CC[C@@]4(C)[C@]3(C)CC[C@H]1C2(C)C | 3.08 | 2.99 | 2.56 | 2.42 | 1.68 |
| CC1(C)CC[C@]23CC[C@]4(C)[C@H](CC[C@@H]5[C@@]6(C)Cc7nnn(Cc8cccc(Cl)c8)c7C(C)(C)[C@@H]6CC[C@]54C)[C@H]2[C@H]1OC3 | 36.5 | 30.7 | 31.5 | 34.4 | 26.3 |
| COc1cccc(Cn2nnc3c2C(C)(C)[C@@H]2CC[C@]4(C)[C@H](CC[C@@H]5[C@H]6[C@H]7OC[C@@]6(CCC7(C)C)CC[C@]54C)[C@@]2(C)C3)c1 | 10.4 | 12.7 | 12 | 11.2 | 10.5 |
| COc1ccc(CCn2n[n+](C)c3c2C(C)(C)[C@@H]2CC[C@]4(C)[C@H](CC[C@@H]5[C@H]6[C@H]7OC[C@@]6(CCC7(C)C)CC[C@]54C)[C@@]2(C)C3)cc1 | 1.97 | 2.91 | 2.39 | 2.85 | 2.09 |
